The values that follow come from patent US20140093489A1, “NUTRITIONAL SUPPLEMENTS FOR EYE HEALTH AND RELATED METHODS” (priority 2012, published 2014).

Data set [1] is described as follows: Coenzyme Q supplementation effect on serum vitamin C. Format: in vivo. The text has this: FIG. 1. Coenzyme Q supplementation effect on serum vitamin C (μg/ml). Subjects (N=12) were given coenzyme Q for 2 weeks with blood taken pre and post intervention. Values are means±SD.
Coenzyme Q has antioxidant properties. This molecule is found in the diet and is made by the body. Body production declines with age. Absorption of orally ingested coenzyme Q can be low, though certain forms work better than others.

Data set [2] relates to plasma extracellular superoxide dismutase. The settings on record: rats fed the copper at adequate level for 6 weeks, unpaired t-test P<0.01. The text has this:
FIG. 4. Comparison of adequate copper intake as sulfate or glycinate for effects on plasma extracellular superoxide dismutase activities in rats. Rats were fed the copper for 6 weeks. […] Values are means±SD in activity units/ml.
Copper is another important cofactor for metalloenzymes, and is a second necessary cofactor for superoxide dismutase.

The conditions of data set [3]: one dose of zinc, blood samples at 0-4 hours, n=12, ANOVA+Tukey p<0.05. The procedure: FIG. 2. Relative zinc absorption from three different forms of zinc. Subjects (n=12) were given one dose of zinc with blood samples taken at 0, 1, 2, 3, and 4 hours. Erythrocyte (red blood cell) zinc was analyzed for each time point with area under the curve used as a measure of relative absorption. The order of the different forms of zinc was randomly determined for each subject. A washout of at least 2 weeks occurred between testings of the different forms of zinc. Values are means±SD.
Zinc is important in maintaining the health of an eye's retina and is an essential part of more than 100 enzymes involved in digestion, metabolism, reproduction, and wound healing. […] (FIG. 3).

For data set [4] the following is noted: 60 mg/day zinc for 6 weeks.
Procedure: Plasma zinc (μg/ml) response to zinc supplementation as gluconate (GLUC) or glycinate chelate (CHE). Young adult females were given 60 mg/day zinc for 6 weeks.

Read-outs that look alike come from different tables or passages of the source.

As to `COC1=C(OC)C(=O)C(C/C=C(\C)CC/C=C(\C)CC/C=C(\C)CC/C=C(\C)CC/C=C(\C)CC/C=C(\C)CC/C=C(\C)CC/C=C(\C)CC/C=C(\C)CCC=C(C)C)=C(C)C1=O` [Coenzyme Q], in data set [1] (coenzyme Q for 2 weeks, N=12, paired t-test P<0.001), the “serum vitamin C (μg/ml), post-values vs pre-values” is “significantly different from pre-values”. Moreover, the “plasma concentrations of active vitamin C” value in data set [1] (well-absorbed form of coenzyme Q, FIG. 1) was “greatly increase plasma concentrations of active vitamin C”.
Turning to `NCC(=O)[O-].NCC(=O)[O-].[Cu+2]` [copper glycinate], the figures for the “plasma extracellular superoxide dismutase activities (activity units/ml)” value in data set [2] and in data set [2] (listed as Glycinate) were “higher activities of a plasma copper enzyme than copper sulfate” and “significantly different from sulfate values”, respectively.
For `NCC(=O)[O-].NCC(=O)[O-].[Zn+2]` [zinc glycinate], the “relative zinc absorption (erythrocyte zinc area under the curve)” value in data set [3] is “better absorbed than zinc oxide”; in data set [3] (listed as Zinc chelate), “differed from the other two groups”. For the same compound, the “plasma zinc (μg/ml), post treatment vs pre-treatment” value in data set [4] is “significantly different from pre-treatment”.
Regarding zinc gluconate [reference compound], in data set [4], the “plasma zinc (μg/ml), post treatment vs pre-treatment” value is “statistically significant decrease”.
